Read-outs that look alike come from different tables or passages of the source.
Experiments:
[1] = target: T1, complement C5a receptor 1 (C5aR1) (Homo sapiens, UniProt P21730); experiment: β-arrestin recruitment via C5aR1 activation in live CHO-K1 cells (PathHunter), antagonist mode; format: cell-based
T1 construct: β-galactosidase fragment (PathHunter enzyme complementation); host or cells: CHO-K1 (PathHunter CHO-K1 C5aR1 β-arrestin cell line)
T1 sequence (P21730 1-350): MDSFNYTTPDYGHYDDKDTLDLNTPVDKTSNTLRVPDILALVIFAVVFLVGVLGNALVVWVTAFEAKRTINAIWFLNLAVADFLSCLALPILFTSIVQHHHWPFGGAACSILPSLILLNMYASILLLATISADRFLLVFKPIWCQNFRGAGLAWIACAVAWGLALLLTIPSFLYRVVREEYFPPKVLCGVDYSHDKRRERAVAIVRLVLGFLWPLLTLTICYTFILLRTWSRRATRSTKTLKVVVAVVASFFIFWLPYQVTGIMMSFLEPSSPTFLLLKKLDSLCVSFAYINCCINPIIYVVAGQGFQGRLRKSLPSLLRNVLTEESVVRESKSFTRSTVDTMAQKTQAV
In short: (§1)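 β-arrestin recruitment to C5aR1 in CHO-K1 cells is detected by enzyme-fragment complementation. Antagonism is measured against recombinant hC5a at its EC90; agonism is measured with compound alone. Potencies are grouped into IC50 categories.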

[2] = target: T1, complement C5a receptor 1 (C5aR1); experiment: β-arrestin recruitment via C5aR1 activation in live CHO-K1 cells (PathHunter), agonist mode; format: cell-based
In short: as §1

[3] = antagonist mode, recombinant hC5a (EC90) as competing natural agonist, live CHO-K1 cells, read-out: [Antagonist] B-arrestin2 recruitment: Average IC50

Row | Compound | IC50 [1, 3] | [Agonist] B-arrestin2 recruitment: Average EC50 (nM) ([2]; at 10 μM) | [Agonist] B-arrestin2 recruitment: Average EC50 (nM) [2] | IC50 [1]
1 | Cc1cnc2cc([C@@H]3CC[C@H](c4c(C)cccc4F)C3)c(=O)n(Cc3ncccc3OC(F)F)c2n1 [175B, 5-((3-(Difluoromethoxy)pyridin-2-yl)methyl)-7-((1R,3S)-3-(2-fluoro-6-methylphenyl)cyclopentyl)-3-methylpyrido[2,3-b]pyrazin-6(5H)-one] | < 0.5 µM | Non-Active at 10 μM |  | 
2 | Cc1ccc2cc([C@H]3CC[C@H](c4c(C)ccnc4F)CC3)c(=O)n(Cc3ncccc3CC(F)(F)F)c2n1 [compound 259, 7-Methyl-3-[(1r,4r)-4-(2-fluoro-4-methyl-3-pyridyl)cyclohexyl]-1-{[3-(2,2,2-trifluoroethyl)-2-pyridyl]methyl}-1,8-diaza-2(1H)-naphthalenone] | < 0.5 µM |  | Non-Active | 
3 | Cc1cnc2cc([C@@H]3CC[C@@H](c4c(C)cccc4F)C3)c(=O)n(Cc3nccnc3C(F)(F)F)c2n1 [197D, 7-((1R,3R)-3-(2-Fluoro-6-methylphenyl)cyclopentyl)-3-methyl-5-((3-(trifluoromethyl)pyrazin-2-yl)methyl)pyrido[2,3-b]pyrazin-6(5H)-one] | < 0.5 µM |  | Non-Active | 
4 | Cc1cccc(F)c1[C@H]1CC[C@H](c2cc3nc(CC(F)F)cnc3n(Cc3ncccc3C(F)(F)F)c2=O)CC1 [compound 226, 2-(2,2-Difluoroethyl)-7-((1r,4r)-4-(2-fluoro-6-methylphenyl)cyclohexyl)-5-((3-(trifluoromethyl)pyridin-2-yl)methyl)pyrido[2,3-b]pyrazin-6(5H)-one] | < 0.5 µM | Non-Active at 10 μM |  | 
5 | Cc1ccnc(F)c1N1CCC(c2cc3nccnc3n(Cc3nccnc3C)c2=O)CC1 [compound 128, 7-(1-(2-Fluoro-4-methylpyridin-3-yl)piperidin-4-yl)-5-((3-methylpyrazin-2-yl)methyl)pyrido[2,3-b]pyrazin-6(5H)-one] | 5 to 100 µM | Non-Active at 10 μM |  | 
6 | Cc1ccc2cc([C@H]3CC[C@H](c4cnccc4C(F)(F)F)CC3)c(=O)n(Cc3ncccc3C(F)(F)F)c2n1 [compound 251, 7-Methyl-1-((3-(trifluoromethyl)pyridin-2-yl)methyl)-3-((1r,4r)-4-(4-(trifluoromethyl)pyridin-3-yl)cyclohexyl)-1,8-naphthyridin-2(1H)-one] | < 0.5 µM | Non-Active at 10 μM |  | 
7 | Cc1cnc2cc([C@@H]3CC[C@H](c4c(C)cccc4F)C3)c(=O)n(Cc3nccnc3C)c2n1 [172B, 7-((1R,3S)-3-(2-Fluoro-6-methylphenyl)cyclopentyl)-3-methyl-5-((3-methylpyrazin-2-yl)methyl)pyrido[2,3-b]pyrazin-6(5H)-one] | 0.5 to 5 µM | Non-Active at 10 μM |  | 
8 | CCc1cnc2cc([C@H]3CC[C@H](c4c(C)cccc4F)CC3)c(=O)n(Cc3ncccc3C(F)(F)F)c2n1 [compound 201, 3-Ethyl-7-((1r,4r)-4-(2-fluoro-6-methylphenyl)cyclohexyl)-5-((3-(trifluoromethyl)pyridin-2-yl)methyl)pyrido[2,3-b]pyrazin-6(5H)-one] | < 0.5 µM | Non-Active at 10 μM |  | 
9 | Cc1cnc2cc(C3CCN(c4c(C)cccc4F)CC3)c(=O)n(Cc3ncccc3C(F)(F)F)c2n1 [compound 41, 7-(1-(2-Fluoro-6-methylphenyl)piperidin-4-yl)-3-methyl-5-((3-(trifluoromethyl)pyridin-2-yl)methyl)pyrido[2,3-b]pyrazin-6(5H)-one] | < 0.5 µM |  | Non-Active | 
10 | Cc1ccc2cc([C@H]3CC[C@H](c4ccccc4C(F)(F)F)CC3)c(=O)n(Cc3ncccc3OC(F)(F)F)c2n1 [compound 244, 7-Methyl-1-((3-(trifluoromethoxy)pyridin-2-yl)methyl)-3-((1r,4r)-4-(2-(trifluoromethyl)phenyl)cyclohexyl)-1,8-naphthyridin-2(1H)-one] | < 0.5 µM |  | Non-Active | 
11 | Cc1cnc2cc(C3CCCCC3)c(=O)n(Cc3ncccc3C(F)(F)F)c2n1 [compound 265, 7-Cyclohexyl-3-methyl-5-{[3-(trifluoromethyl)-2-pyridyl]methyl}-1,4,5-triaza-6(5H)-naphthalenone] | 0.5 to 5 µM |  | Non-Active | 
12 | Cc1ccc2cc([C@H]3CC[C@H](c4c(C)cccc4F)CC3)c(=O)n(Cc3nccnc3OCC(F)F)c2n1 [compound 263, 1-{[3-(2,2-Difluoroethoxy)-2-pyrazinyl]methyl}-7-methyl-3-[(1r,4r)-4-(2-fluoro-6-tolyl)cyclohexyl]-1,8-diaza-2(1H)-naphthalenone] | < 0.5 µM |  | Non-Active | 
13 | Cc1cnc2cc(C3CCN(c4c(C)cccc4F)CC3)c(=O)n([C@H]3CCCc4nccnc43)c2n1 [61a, (S)-7-(1-(2-Fluoro-6-methylphenyl)piperidin-4-yl)-3-methyl-5-(5,6,7,8-tetrahydroquinoxalin-5-yl) pyrido[2,3-b]pyrazin-6(5H)-one] | 0.5 to 5 µM |  | Non-Active | 
14 | Cc1cnc2cc([C@H]3CC[C@H](c4c(C)cccc4F)CC3)c(=O)n(Cc3ncccc3C3CC3)c2n1 [compound 220, 5-((3-Cyclopropylpyridin-2-yl)methyl)-7-((1r,4r)-4-(2-fluoro-6-methylphenyl)cyclohexyl)-3-methylpyrido[2,3-b]pyrazin-6(5H)-one] | < 0.5 µM | Non-Active at 10 μM |  | 
15 | Cc1cccc(F)c1N1CCC(c2cc3nccnc3n([C@@H]3CCCc4ncccc43)c2=O)CC1 [49a, (R)-7-(1-(2-Fluoro-6-methylphenyl)piperidin-4-yl)-5-(5,6,7,8-tetrahydroquinolin-5-yl)pyrido[2,3-b]pyrazin-6(5H)-one] | 5 to 100 µM |  | Non-Active | 
16 | Cc1cnc2cc([C@H]3CC[C@H](c4c(C)cccc4F)CC3)c(=O)n(Cc3ncccc3CC(F)(F)F)c2n1 [compound 219, 7-((1r,4r)-4-(2-Fluoro-6-methylphenyl)cyclohexyl)-3-methyl-5-((3-(2,2,2-trifluoroethyl)pyridin-2-yl)methyl) pyrido[2,3-b]pyrazin-6(5H)-one] | < 0.5 µM | Non-Active at 10 μM |  | 
17 | Cc1cccc(F)c1N1CCC(c2cc3nccnc3n(Cc3cncc(C(F)(F)F)n3)c2=O)CC1 [compound 30, 7-(1-(2-Fluoro-6-methylphenyl)piperidin-4-yl)-5-((6-(trifluoromethyl)pyrazin-2-yl)methyl)pyrido[2,3-b]pyrazin-6(5H)-one] |  |  | Non-Active | 5 to 100 µM
18 | COc1nccc(C)c1[C@H]1CC[C@H](c2cc3ccc(C)nc3n(Cc3ncccc3OC(F)(F)F)c2=O)CC1 [compound 261, 7-Methyl-3-[(1r,4r)-4-(2-methoxy-4-methyl-3-pyridyl)cyclohexyl]-1-[(3-trifluoromethoxy-2-pyridyl)methyl]-1,8-diaza-2(1H)-naphthalenone] | < 0.5 µM |  | Non-Active | 
